Experimental findings from patent publication US9434711B2 (Janssen Pharmaceutica, NV, priority 2007, dated 2016) are described below.

pIC50: −log10 of the molar value.

In the experiment the target is canine TRPM8 (Canis lupus familiaris, UniProt Q1A7N1). Kind of experiment: In Vitro Canine TRPM8 Functional Assay (Ca2+ fluorescence, icilin activation). In kind it is cell-based. The settings on record: for pIC50: HEK293 cells stably expressing canine TRPM8, icilin activation, eight-point dose-response, read-out: IC50; for inhibition at 0.2 µM / % Inh @ 0.2 (μM): compound at 0.2 μM, canine TRPM8, icilin activation; for inhibition at 0.2 µM: read-out: % Inh @ 0.2. A digest of the protocol: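 Canine TRPM8 stably expressed in HEK293; compound added 5 min before icilin challenge (~80% max response), with fluorescent Ca2+ signal tracked throughout.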
Chain of canine TRPM8 (Q1A7N1 1-1104): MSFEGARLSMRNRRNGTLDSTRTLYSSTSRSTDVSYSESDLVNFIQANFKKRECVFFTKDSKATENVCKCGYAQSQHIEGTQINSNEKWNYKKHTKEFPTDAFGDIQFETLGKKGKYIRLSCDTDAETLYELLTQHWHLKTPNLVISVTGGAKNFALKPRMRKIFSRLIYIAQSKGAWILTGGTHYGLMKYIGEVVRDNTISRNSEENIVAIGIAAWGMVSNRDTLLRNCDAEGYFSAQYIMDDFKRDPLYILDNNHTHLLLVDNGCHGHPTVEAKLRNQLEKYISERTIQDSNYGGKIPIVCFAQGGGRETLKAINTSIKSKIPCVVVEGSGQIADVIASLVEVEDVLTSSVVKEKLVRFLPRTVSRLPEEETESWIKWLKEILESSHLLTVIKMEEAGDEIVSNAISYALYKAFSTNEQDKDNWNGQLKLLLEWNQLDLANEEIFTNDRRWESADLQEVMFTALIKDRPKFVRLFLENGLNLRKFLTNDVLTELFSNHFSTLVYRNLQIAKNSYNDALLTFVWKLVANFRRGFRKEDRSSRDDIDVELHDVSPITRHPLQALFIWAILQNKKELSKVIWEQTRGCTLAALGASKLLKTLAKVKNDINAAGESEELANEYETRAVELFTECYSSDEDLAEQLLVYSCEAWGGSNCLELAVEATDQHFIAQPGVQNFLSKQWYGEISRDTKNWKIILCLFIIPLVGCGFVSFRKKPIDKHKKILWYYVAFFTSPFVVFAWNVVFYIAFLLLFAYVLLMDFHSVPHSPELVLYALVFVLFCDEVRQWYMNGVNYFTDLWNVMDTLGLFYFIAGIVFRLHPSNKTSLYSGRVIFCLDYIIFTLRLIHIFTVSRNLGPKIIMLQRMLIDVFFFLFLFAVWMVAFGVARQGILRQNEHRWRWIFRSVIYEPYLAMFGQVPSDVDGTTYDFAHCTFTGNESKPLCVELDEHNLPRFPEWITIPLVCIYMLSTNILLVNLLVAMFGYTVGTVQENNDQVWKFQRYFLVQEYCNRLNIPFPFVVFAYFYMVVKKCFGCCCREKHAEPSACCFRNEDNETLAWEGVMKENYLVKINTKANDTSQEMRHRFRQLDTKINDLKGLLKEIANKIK

`O=S(=O)(c1ccc(-c2nnn[nH]2)cc1)N(CC1CC1)c1sc2ccccc2c1Br` [Compound 474, N-(3-Bromo-benzo[b]thiophen-2-yl)-N-(cyclopropyl-methyl)-4-(1H-tetrazol-5-yl)-benzenesulfonamide]: the pIC50 (in general, the negative decadic logarithm of the IC50, by convention in mol/L) is 8.10 and the inhibition at 0.2 µM amounted to 101%.

For `O=S(=O)(c1ccc(-c2nnn[nH]2)cc1)N(Cc1ccc(F)c(C(F)(F)F)c1)c1sc2ccccc2c1Br` [Compound 475, N-(3-Bromo-benzo[b]thiophen-2-yl)-N-(4-fluoro-3-trifluoromethyl-benzyl)-4-(1H-tetrazol-5-yl)-benzenesulfonamide], the pIC50 is 8.70 and the inhibition at 0.2 µM amounted to 102%.

As for `O=S(=O)(c1ccc(Br)cc1)N(CCC(F)(F)F)c1cc2ccccc2s1` [Compound 476, N-(Benzo[b]thiophen-2-yl)-4-(bromo)-N-(3,3,3-trifluoro-propyl)-benzenesulfonamide], the inhibition at 0.2 µM came to 39%.

For `CCCCN(c1sc2ccccc2c1Cl)S(=O)(=O)c1ccc(C(=O)O)cc1` [Compound 477, N-(3-Chloro-benzo[b]thiophen-2-yl)-N-(butyl)-4-carboxy-benzenesulfonamide], the pIC50 is 7.92 and the inhibition at 0.2 µM turned out to be 100%.

For `O=C(O)c1ccc(S(=O)(=O)N(CC2CC2)c2sc3ccccc3c2Cl)cc1` [Compound 478, N-(3-Chloro-benzo[b]thiophen-2-yl)-N-(cyclopropylmethyl)-4-carboxy-benzenesulfonamide], the pIC50 was 7.60 and the inhibition at 0.2 µM stood at 99%.

For the compound `O=C(O)c1ccc(S(=O)(=O)N(CCC(F)(F)F)c2sc3ccccc3c2Cl)cc1` [Compound 480, N-(3-Chloro-benzo[b]thiophen-2-yl)-N-(3,3,3-trifluoro-propyl)-4-carboxy-benzenesulfonamide], the pIC50 is 7.89 and the inhibition at 0.2 µM is 100%.

For the compound `CCCCN(c1sc2ccccc2c1Br)S(=O)(=O)c1ccc(-c2noc(=S)[nH]2)cc1` [Compound 481, N-(3-Bromo-benzo[b]thiophen-2-yl)-N-(butyl)-4-(5-thioxo-4,5-dihydro-[1,2,4]oxadiazol-3-yl)-benzenesulfonamide], the inhibition at 0.2 µM was found to be 69%.

In the case of `N/C(=N\O)c1ccc(S(=O)(=O)N(Cc2ccc(F)c(C(F)(F)F)c2)c2cc3ccccc3s2)cc1` [Compound 482, N-(Benzo[b]thiophen-2-yl)-N-(4-fluoro-3-trifluoromethyl-benzyl)-4-N-hydroxy-benzamidinesulfonamide], the pIC50 was 7.62 and the “% Inh @ 0.2 (μM)” value is 100%.

Take `O=c1[nH]c(-c2ccc(S(=O)(=O)N(Cc3ccc(F)c(C(F)(F)F)c3)c3cc4ccccc4s3)cc2)no1` [Compound 483, N-(Benzo[b]thiophen-2-yl)-N-(4-fluoro-3-trifluoromethyl-benzyl)-4-(5-oxo-4,5-dihydro-[1,2,4]oxadiazol-3-yl)-benzenesulfonamide]: the pIC50 is 8.05 and the inhibition at 0.2 µM turned out to be 101%.

For `CCCCN(c1sc2ccccc2c1Br)S(=O)(=O)c1ccc(C2=NOS(=O)N2)cc1` (stereo not shown) [Compound 484, N-(3-Bromo-benzo[b]thiophen-2-yl)-N-(butyl)-4-(3H-[1,2,3,5]oxathiadiazole-2-oxide)-benzenesulfonamide], the pIC50 was 7.68 and the “% Inh @ 0.2 (μM)” value was found to be 100%.

With `CCCCN(c1sc2ccccc2c1Cl)S(=O)(=O)c1ccc(C2=NOS(=O)N2)cc1` (stereo not shown) [Compound 485, N-(3-Chloro-benzo[b]thiophen-2-yl)-N-(butyl)-4-(3H-[1,2,3,5]oxathiadiazole-2-oxide)-benzenesulfonamide], the pIC50 is 7.68 and the “% Inh @ 0.2 (μM)” value worked out at 96%.

`Cc1c(N(Cc2ccccc2)S(=O)(=O)c2ccc(C(=O)O)cc2)sc2ccccc12` [Compound 486, N-(3-Methyl-benzo[b]thiophen-2-yl)-N-(benzyl)-4-carboxy-benzenesulfonamide]: the inhibition at 0.2 µM came to 100%.

Turning to `Cc1c(N(Cc2cccc(C(F)(F)F)c2)S(=O)(=O)c2ccc(C(=O)O)cc2)sc2ccccc12` [Compound 491, N-(3-Methyl-benzo[b]thiophen-2-yl)-N-(3-trifluoromethyl-benzyl)-4-carboxy-benzenesulfonamide], the pIC50 was 9.00 and the inhibition at 0.2 µM is 101%.

On to `Cc1c(N(Cc2ccc(S(C)(=O)=O)cc2)S(=O)(=O)c2ccc(C(=O)O)cc2)sc2ccccc12` [Compound 492, N-(3-Methyl-benzo[b]thiophen-2-yl)-N-(4-methylsulfone-benzyl)-4-carboxy-benzenesulfonamide], for which the pIC50 was 7.21 and the “% Inh @ 0.2 (μM)” value is listed as 91%.

Regarding `Cc1c(N(Cc2c(F)c(F)c(F)c(F)c2F)S(=O)(=O)c2ccc(C(=O)O)cc2)sc2ccccc12` [Compound 493, N-(3-Methyl-benzo[b]thiophen-2-yl)-N-(2,3,4,5,6-pentafluoro-benzyl)-4-carboxy-benzenesulfonamide], the pIC50 is 9.10 and the inhibition at 0.2 µM came out at 101%.

As to `Cc1c(N(Cc2ccc(S(=O)(=O)C(F)(F)F)cc2)S(=O)(=O)c2ccc(C(=O)O)cc2)sc2ccccc12` [Compound 494, N-(3-Methyl-benzo[b]thiophen-2-yl)-N-(4-trifluoromethylsulfone-benzyl)-4-carboxy-benzenesulfonamide], the pIC50 is 9.05 and the “% Inh @ 0.2 (μM)” value came to 101%.

For `Cc1c(N(Cc2cccnc2)S(=O)(=O)c2ccc(C(=O)O)cc2)sc2ccccc12` [Compound 495, N-(3-Methyl-benzo[b]thiophen-2-yl)-N-(pyridin-3-ylmethyl)-4-carboxy-benzenesulfonamide], the pIC50 was 7.26 and the “% Inh @ 0.2 (μM)” value was 98%.

For the compound `O=[N+]([O-])c1ccc(S(=O)(=O)N(CCC(F)(F)F)c2cc3ccccc3s2)cc1` [Compound 498, N-(Benzo[b]thiophen-2-yl)-4-nitro-N-(3,3,3-trifluoro-propyl)-benzenesulfonamide], the inhibition at 0.2 µM was 41%.

`Nc1ccc(S(=O)(=O)N(CCC(F)(F)F)c2cc3ccccc3s2)cc1` [Compound 499, 4-Amino-N-(benzo[b]thiophen-2-yl)-N-(3,3,3-trifluoro-propyl)-benzenesulfonamide]: the pIC50 was 7.82 and the inhibition at 0.2 µM came out at 101%.

With `CCCCN(c1sc2ccccc2c1NC(C)=O)S(=O)(=O)c1ccc(C(=O)OC)cc1` [Compound 500, N-(3-Acetylamino-benzo[b]thiophen-2-yl)-N-(butyl)-4-carbomethoxy-benzenesulfonamide], the inhibition at 0.2 µM was 15%.

Regarding `O=C(O)c1ccc(S(=O)(=O)N(Cc2ccc(F)c(C(F)(F)F)c2)c2sc3ccccc3c2C2CCCC2)cc1` [Compound 502, N-(3-Cyclopentyl-benzo[b]thiophen-2-yl)-N-(4-fluoro-3-trifluoromethyl-benzyl)-4-carboxy-benzenesulfonamide], the pIC50 is 8.00 and the inhibition at 0.2 µM was determined as 100%.

Take `CCCCN(c1sc2ccccc2c1C(C)=O)S(=O)(=O)c1ccc(Br)cc1` [Compound 503, N-(3-Acetyl-benzo[b]thiophen-2-yl)-N-(butyl)-4-bromo-benzenesulfonamide]: the negative-log IC50 (pIC50) is 7.33 and the inhibition at 0.2 µM stood at 96%.

Consider `COC(=O)c1ccc(S(=O)(=O)N(CCC(F)(F)F)c2sc3ccccc3c2C(C)(C)O)cc1` [Compound 504, N-(3-(1-Hydroxy-1-methyl-ethyl)-benzo[b]thiophen-2-yl)-N-(3,3,3-trifluoro-propyl)-4-carbomethoxy-benzenesulfonamide], for which the pIC50 was 7.74 and the inhibition at 0.2 µM is 101%.

In the case of `CCCCN(c1sc2ccccc2c1C(C)(C)O)S(=O)(=O)c1ccc(Br)cc1` [Compound 506, N-(Butyl)-N-(3-(1-hydroxy-1-methyl-ethyl)-benzo[b]thiophen-2-yl)-4-bromo-benzenesulfonamide], the pIC50 is 7.51 and the inhibition at 0.2 µM was found to be 100%.

On to `CS(=O)(=O)Nc1ccc(S(=O)(=O)N(CCC(F)(F)F)c2cc3ccccc3s2)cc1` [Compound 507, N-(Benzo[b]thiophen-2-yl)-4-methanesulfonylamino-N-(3,3,3-trifluoro-propyl)-benzenesulfonamide], for which the pIC50 was 7.47 and the inhibition at 0.2 µM was determined as 92%.

On to `CS(=O)(=O)Nc1c(N(Cc2ccc(F)c(C(F)(F)F)c2)S(=O)(=O)c2ccccc2)sc2ccccc12` [Compound 508, N-(4-Fluoro-3-trifluoromethyl-benzyl)-N-(3-methanesulfonylamino-benzo[b]thiophen-2-yl)-benzenesulfonamide], for which the inhibition at 0.2 µM worked out at 47%.

As to `CC(=O)Nc1c(N(Cc2ccc(F)c(C(F)(F)F)c2)S(=O)(=O)c2ccccc2)sc2ccccc12` [Compound 509, N-{2-[Benzenesulfonyl-(4-fluoro-3-trifluoromethyl-benzyl)-amino]-benzo[b]thiophen-3-yl}-acetamide], the pIC50 was 7.49 and the inhibition at 0.2 µM was 100%.

Regarding `Cc1c(N(Cc2ccc(F)c(C(F)(F)F)c2)S(=O)(=O)CCC(=O)O)sc2ccccc12` [Compound 510, N-(4-Fluoro-3-trifluoromethyl-benzyl)-N-(3-methyl-benzo[b]thiophen-2-yl)-2-carboxy-ethanesulfonamide], the negative logarithm of the IC50 (pIC50) is 7.96 and the inhibition at 0.2 µM was 102%.

In the case of `O=c1[nH]c(-c2ccc(S(=O)(=O)N(Cc3ccc(F)c(C(F)(F)F)c3)c3sc4ccccc4c3Br)cc2)no1` [Compound 511, N-(3-Bromo-benzo[b]thiophen-2-yl)-N-(4-fluoro-3-trifluoromethyl-benzyl)-4-(5-oxo-4,5-dihydro-[1,2,4]oxadiazol-3-yl)-benzenesulfonamide], the pIC50 was 8.52 and the inhibition at 0.2 µM is 101%.
